Assay results as given in ChEMBL document CHEMBL2390874, “Synthesis, antibacterial activity and cytotoxicity of new fused pyrazolo[1,5-a]pyrimidine and pyrazolo[5,1-c][1,2,4]triazine derivatives from new 5-aminopyrazoles” (Eur J Med Chem, 2013).
Converted amounts (≈) assume the structure as drawn. The source made the active and inactive calls. No cut-off for these calls is given here.

Legend:
[1] = Selectivity index, ratio of CC50 for african green monkey vero cells to MIC for Serratia marcescens ATCC 13880; format: functional
[2] = Selectivity index, ratio of CC50 for african green monkey vero cells to MIC for Escherichia coli ATCC 10536; format: functional
[3] = Selectivity index, ratio of CC50 for african green monkey vero cells to MIC for Bacillus subtilis ATCC 11774; format: functional
[4] = Selectivity index, ratio of CC50 for african green monkey vero cells to MIC for Staphylococcus aureus ATCC 25923; format: functional
Salmonella typhimurium = test: Antibacterial activity against Salmonella typhimurium ATCC 51812 assessed as growth inhibition at 1 mg/ml after 24 hrs by agar diffusion method; format: functional, organism-based; details: Salmonella enterica subsp. enterica serovar Typhimurium
Enterococcus faecalis = test: Antibacterial activity against Enterococcus faecalis ATCC 14506 assessed as growth inhibition at 1 mg/ml after 24 hrs by agar diffusion method; format: functional, organism-based
[5] = test system: Staphylococcus epidermidis; test: Antibacterial activity against Staphylococcus epidermidis ATCC 12228 assessed as growth inhibition at 1 mg/ml after 24 hrs by agar diffusion method; format: functional, organism-based
[6] = Cytotoxicity against african green monkey vero cells by MTT assay; format: cell-based; details: chlorocebus sabaeus
Staphylococcus aureus [7] = test: Antibacterial activity against methicillin-resistant Staphylococcus aureus ATCC 43300 assessed as growth inhibition at 1 mg/ml after 24 hrs by agar diffusion method; format: functional, organism-based
Serratia marcescens [8] = test: Bactericidal activity against Serratia marcescens ATCC 13880 by broth dilution method; format: functional
Staphylococcus aureus [9] = test: Bactericidal activity against Staphylococcus aureus ATCC 25923 by broth dilution method; format: functional
Escherichia coli [10] = test: Bactericidal activity against Escherichia coli ATCC 10536 by broth dilution method; format: functional
Bacillus subtilis [11] = test: Bactericidal activity against Bacillus subtilis ATCC 11774 by broth dilution method; format: functional
Serratia marcescens [12] = test: Antibacterial activity against Serratia marcescens ATCC 13880 assessed as growth inhibition by broth dilution method; format: functional
Escherichia coli [13] = test: Antibacterial activity against Escherichia coli ATCC 10536 assessed as growth inhibition by broth dilution method; format: functional
Staphylococcus aureus [14] = test: Antibacterial activity against Staphylococcus aureus ATCC 25923 assessed as growth inhibition by broth dilution method; format: functional
Serratia marcescens [15] = test: Antibacterial activity against Serratia marcescens ATCC 13880 assessed as growth inhibition at 1 mg/ml after 24 hrs by agar diffusion method; format: functional; details: ATCC 13880, 24 h, read-out: DIZ
Bacillus subtilis [16] = test: Antibacterial activity against Bacillus subtilis ATCC 11774 assessed as growth inhibition by broth dilution method; format: functional
Pseudomonas aeruginosa [17] = test: Antibacterial activity against Pseudomonas aeruginosa ATCC 10145 assessed as growth inhibition at 1 mg/ml after 24 hrs by agar diffusion method; format: functional; details: ATCC 10145, 24 h, read-out: DIZ
Escherichia coli [18] = test: Antibacterial activity against Escherichia coli ATCC 10536 assessed as growth inhibition at 1 mg/ml after 24 hrs by agar diffusion method; format: functional; details: ATCC 10536, 24 h, read-out: DIZ
Staphylococcus aureus [19] = test: Antibacterial activity against Staphylococcus aureus ATCC 25923 assessed as growth inhibition at 1 mg/ml after 24 hrs by agar diffusion method; format: functional; details: ATCC 25923, 24 h, read-out: DIZ
Bacillus subtilis [20] = test: Antibacterial activity against Bacillus subtilis ATCC 11774 assessed as growth inhibition at 1 mg/ml after 24 hrs by agar diffusion method; format: functional; details: ATCC 11774, 24 h, read-out: DIZ
[21] = Selectivity index, ratio of CC50 for african green monkey vero cells to MIC for Pseudomonas aeruginosa ATCC 10145; format: functional
Pseudomonas aeruginosa [22] = test: Bactericidal activity against Pseudomonas aeruginosa ATCC 10145 by broth dilution method; format: functional
Pseudomonas aeruginosa [23] = test: Antibacterial activity against Pseudomonas aeruginosa ATCC 10145 assessed as growth inhibition by broth dilution method; format: functional
Bacillus subtilis [24] = test: Antibacterial activity against Bacillus subtilis ATCC 11774 assessed as growth inhibition after 24 hrs by agar diffusion method; format: functional
Staphylococcus aureus [25] = test: Antibacterial activity against Staphylococcus aureus ATCC 25923 assessed as growth inhibition after 24 hrs by agar diffusion method; format: functional
Serratia marcescens [26] = test: Antibacterial activity against Serratia marcescens ATCC 13880 assessed as growth inhibition at 10 ug after 24 hrs by agar diffusion method; format: functional; details: ATCC 13880, 24 h, read-out: DIZ
Escherichia coli [27] = test: Antibacterial activity against Escherichia coli ATCC 10536 assessed as growth inhibition at 10 ug after 24 hrs by agar diffusion method; format: functional; details: ATCC 10536, 24 h, read-out: DIZ
Pseudomonas aeruginosa [28] = test: Antibacterial activity against Pseudomonas aeruginosa ATCC 10145 assessed as growth inhibition at 10 ug after 24 hrs by agar diffusion method; format: functional; details: ATCC 10145, 24 h, read-out: DIZ

Compound	Selectivity Index [2]	Selectivity Index [3]	Selectivity Index [4]	growth inhibition (GI) (Salmonella typhimurium)	growth inhibition (GI) (Enterococcus faecalis)	growth inhibition (GI) [5]	CC50 [6] [mg/mL]	growth inhibition (GI) (Staphylococcus aureus [7])	MBC (Staphylococcus aureus [9]) [mg/mL]	MBC (Escherichia coli [10]) [mg/mL]	MBC (Bacillus subtilis [11]) [mg/mL]	MIC (Escherichia coli [13]) [mg/mL]	MIC (Staphylococcus aureus [14]) [mg/mL]	zone of inhibition at 1000 µg/mL (Serratia marcescens [15]) [mm]	MIC (Bacillus subtilis [16]) [mg/mL]	zone of inhibition at 1000 µg/mL (Pseudomonas aeruginosa [17]) [mm]	zone of inhibition at 1000 µg/mL (Escherichia coli [18]) [mm]	zone of inhibition at 1000 µg/mL (Staphylococcus aureus [19]) [mm]	zone of inhibition at 1000 µg/mL (Bacillus subtilis [20]) [mm]	Selectivity Index [21]	further results
Cc1cc(C)n2nc(N3CCCCC3)c(C#N)c2n1	0.08	0.08	0.08	inactive	inactive	inactive	1.25 (≈ 4.9 mM)	inactive	16 (≈ 62.7 mM)	16 (≈ 62.7 mM)	16 (≈ 62.7 mM)	16 (≈ 62.7 mM)	16 (≈ 62.7 mM)	7	16 (≈ 62.7 mM)	6	11	12	10	–	Selectivity Index [1]: 0.08; MBC (Serratia marcescens [8]): 16 mg/mL (≈ 62.7 mM); MIC (Serratia marcescens [12]): 16 mg/mL (≈ 62.7 mM)
N#Cc1c(N2CCOCC2)n[nH]c1N	0.29	0.15	0.29	inactive	inactive	inactive	2.34 (≈ 12.1 mM)	inactive	> 16	16 (≈ 82.8 mM)	16 (≈ 82.8 mM)	8 (≈ 41.4 mM)	16 (≈ 82.8 mM)	6	16 (≈ 82.8 mM)	7	11	11	6	0.29	Selectivity Index [1]: 0.29; MBC (Serratia marcescens [8]): 8 mg/mL (≈ 41.4 mM); MBC (Pseudomonas aeruginosa [22]): 16 mg/mL (≈ 82.8 mM); MIC (Serratia marcescens [12]): 8 mg/mL (≈ 41.4 mM); MIC (Pseudomonas aeruginosa [23]): 8 mg/mL (≈ 41.4 mM)
O=C(N[C@H](CO)[C@H](O)c1ccc([N+](=O)[O-])cc1)C(Cl)Cl [CHLORAMPHENICOL]	–	–	–	–	–	–	–	–	–	–	–	–	–	–	–	–	–	–	–	–	diameter of the inhibition zone (DIZ) (Bacillus subtilis [24]): 25 mm; diameter of the inhibition zone (DIZ) (Staphylococcus aureus [25]): 25 mm
N#Cc1c(N2CCCCC2)n[nH]c1N	0.14	0.14	0.14	inactive	inactive	inactive	0.55 (≈ 2.88 mM)	inactive	16 (≈ 83.7 mM)	8 (≈ 41.8 mM)	8 (≈ 41.8 mM)	4 (≈ 20.9 mM)	16 (≈ 83.7 mM)	6	4 (≈ 20.9 mM)	7	15	15	9	0.07	Selectivity Index [1]: 0.28; MBC (Serratia marcescens [8]): 4 mg/mL (≈ 20.9 mM); MBC (Pseudomonas aeruginosa [22]): 8 mg/mL (≈ 41.8 mM); MIC (Serratia marcescens [12]): 2 mg/mL (≈ 10.5 mM); MIC (Pseudomonas aeruginosa [23]): 8 mg/mL (≈ 41.8 mM)
N#Cc1nnc2c(C#N)c(N3CCCCC3)nn2c1N	0.09	0.09	0.09	inactive	inactive	inactive	1.4 (≈ 5.22 mM)	inactive	16 (≈ 59.6 mM)	16 (≈ 59.6 mM)	16 (≈ 59.6 mM)	16 (≈ 59.6 mM)	16 (≈ 59.6 mM)	6	16 (≈ 59.6 mM)	7	10	11	11	0.09	MBC (Pseudomonas aeruginosa [22]): 16 mg/mL (≈ 59.6 mM); MIC (Pseudomonas aeruginosa [23]): 16 mg/mL (≈ 59.6 mM)
CSc1c(C#N)c(N)nc2c(C#N)c(N3CCCCC3)nn12	0.11	0.11	0.11	inactive	inactive	inactive	1.75 (≈ 5.58 mM)	inactive	16 (≈ 51.1 mM)	16 (≈ 51.1 mM)	16 (≈ 51.1 mM)	16 (≈ 51.1 mM)	16 (≈ 51.1 mM)	7	16 (≈ 51.1 mM)	7	10	11	10	0.22	Selectivity Index [1]: 0.11; MBC (Serratia marcescens [8]): 16 mg/mL (≈ 51.1 mM); MBC (Pseudomonas aeruginosa [22]): 16 mg/mL (≈ 51.1 mM); MIC (Serratia marcescens [12]): 16 mg/mL (≈ 51.1 mM); MIC (Pseudomonas aeruginosa [23]): 8 mg/mL (≈ 25.5 mM)
Cc1cc(O)n2nc(N3CCOCC3)c(C#N)c2n1	0	0.01	0	inactive	inactive	inactive	0.063 (≈ 0.243 mM)	inactive	16 (≈ 61.7 mM)	> 16	16 (≈ 61.7 mM)	16 (≈ 61.7 mM)	16 (≈ 61.7 mM)	6	8 (≈ 30.9 mM)	7	10	9	9	0.01	MBC (Pseudomonas aeruginosa [22]): > 16 mg/mL; MIC (Pseudomonas aeruginosa [23]): 8 mg/mL (≈ 30.9 mM)
CN[C@@H]1[C@H](O[C@H]2[C@H](O[C@H]3[C@H](O)[C@@H](O)[C@H](N=C(N)N)[C@@H](O)[C@@H]3N=C(N)N)O[C@@H](C)[C@]2(O)C=O)O[C@@H](CO)[C@H](O)[C@H]1O [STREPTOMYCIN]	–	–	–	–	–	–	–	–	–	–	–	–	–	–	–	–	–	–	–	–	zone of inhibition at 10 µg/disc (Serratia marcescens [26]): 20 mm; zone of inhibition at 10 µg/disc (Escherichia coli [27]): 13 mm; zone of inhibition at 10 µg/disc (Pseudomonas aeruginosa [28]): 14 mm
N#Cc1c(N2CCCC2)n[nH]c1N	0.31	0.31	0.31	inactive	inactive	inactive	2.5 (≈ 14.1 mM)	inactive	16 (≈ 90.3 mM)	16 (≈ 90.3 mM)	8 (≈ 45.1 mM)	8 (≈ 45.1 mM)	16 (≈ 90.3 mM)	7	8 (≈ 45.1 mM)	7	9	10	9	0.31	Selectivity Index [1]: 0.31; MBC (Serratia marcescens [8]): 8 mg/mL (≈ 45.1 mM); MBC (Pseudomonas aeruginosa [22]): 16 mg/mL (≈ 90.3 mM); MIC (Serratia marcescens [12]): 8 mg/mL (≈ 45.1 mM); MIC (Pseudomonas aeruginosa [23]): 8 mg/mL (≈ 45.1 mM)
